{"source": "patent US12492211B2", "about": "“Crystalline form of nitrogen-containing tricyclic compound and use thereof” (SUNSHINE LAKE PHARMA CO., LTD., priority 2019, dated 2025)", "key": {"[1]": {"assay": "Stability test: high-temperature test (60° C.)", "format": "physicochemical", "conditions": "for Purity (%): HPLC", "procedure": "(1) High-temperature test: A batch of the test sample was taken into a flat weighing bottle, divided into ≤5 mm thick thin layer. The sample was placed at 60° C. for 30 days. The sample was then sampled at day 5, day 10 and day 30, and the change of the sample's color was observed. The purity of the sample was detected by HPLC, and the structure of the sample was analyzed by X-ray powder diffraction, the change of X-ray powder diffraction in high temperature test was […] as shown in FIG. 4."}, "[2]": {"assay": "Stability test: high-humidity test (25° C., RH 90%±5%)", "format": "physicochemical", "conditions": "for Appearance / Purity (%): High-humidity 25° C., RH 90%±5%; for Purity (%): HPLC", "procedure": "(2) High-humidity test: A batch of the test sample was taken into a flat weighing bottle, divided into ≤5 mm thick thin layer. The sample was placed at 25° C., RH 90%±5% for 30 days. The sample was then sampled at day 5, day 10 and day 30, and the change of the sample's color was observed. The purity of the sample was detected by HPLC, and the structure of the sample was analyzed by X-ray powder diffraction, the change of X-ray powder diffraction in high humidity test was […] as shown in FIG. 5."}, "[3]": {"assay": "Stability test: light test (4500±500lx, UV)", "format": "physicochemical", "conditions": "for Appearance / Purity (%): Light 4500±500lx, UV; for Purity (%): HPLC", "procedure": "(3) Light test: A batch of the test sample was taken into a flat weighing bottle, divided into ≤5 mm thick thin layer. The sample was placed in an opened light box (with UV) at the illuminance 4500±500lx, UV light ≥0.7 w/m^2 for 30 days. The sample was then sampled at day 5, day 13 and day 30, and the change of the sample's color was observed. The purity of the sample was detected by HPLC, and the structure of the sample was analyzed by X-ray powder diffraction, the change of X-ray powder diffraction in light test was […] as shown in FIG. 6."}, "[4]": {"assay": "Hygroscopicity test by dynamic moisture adsorption (DVS)", "format": "physicochemical", "conditions": "relative humidity of 80%", "procedure": "The description of the hygroscopic feature and the definition of the hygroscopic weight gain (Chinese Pharmacopoeia 2015 edition, Appendix 9103 Guidelines for Drug Hygroscopicity Tests, experimental conditions: 25° C.±1° C., 80%±2% relative humidity) are as described in the table below.\nAn appropriate amount of the test sample was taken and the hygroscopicity of the test sample was tested by dynamic moisture adsorption device. […] That is, the crystal form A of the invention is not easily deliquescent under the influence of high humidity."}, "[5]": {"assay": "Pharmacokinetic test in Beagle dogs, oral capsules", "format": "in vivo", "conditions": "5 mg/kg oral", "procedure": "The crystal form A of compound having Formula (I) named 2-((5-cyclopropyl-3-(2,6-dichlorophenyl)isoxazol-4-yl)methoxy)-10H-spiro[benzo[6,7]oxepino[3,2-b]pyridine-11,1′-cyclopropane]-7-carboxylic acid was filled into capsules, which was for oral administration.\n8-12 kg Male Beagle dogs were given 5 mg/kg test sample orally, with 3 animals in each group. Blood samples were taken at time points of 0.25, 0.5, 1.0, 2.0, 4.0, 6.0, 8.0, 12 and 24 h. Standard curve was plotted based on concentrations of the samples in a suitable range, the concentration of the test sample in the plasma sample was measured and quantified by AB SCIEX API4000 LC-MS/MS at MRM mode. Pharmacokinetic parameters were calculated according to drug concentration-time curve using a noncompartmental model by WinNonLin 6.3 software."}, "[6]": {"conditions": "High-temperature 60° C., 5 days"}, "[7]": {"conditions": "High-temperature 60° C., 10 days"}, "[8]": {"conditions": "High-temperature 60° C., 30 days"}, "[9]": {"conditions": "dog, plasma, male Beagle dogs, capsules"}}, "data": [{"smiles": "O=C(O)c1ccc2c(c1)Oc1ccc(OCc3c(-c4c(Cl)cccc4Cl)noc3C3CC3)nc1C1(CC1)C2", "note": "[Crystal form A, 2-((5-cyclopropyl-3-(2,6-dichlorophenyl)isoxazol-4-yl)methoxy)-10H-spiro[benzo[6,7]oxepino[3,2-b]pyridine-11,1′-cyclopropane]-7-carboxylic acid]", "values": [{"measurement": "Appearance", "setting": "[1]; 0 days (initial sample)", "result": "White"}, {"measurement": "Purity (%)", "setting": "[1]; 0 days (initial sample)", "result": 99.44, "unit": "%"}, {"measurement": "Appearance", "setting": "[1]; [6]", "result": "White"}, {"measurement": "Purity (%)", "setting": "[1]; [6]", "result": 99.33, "unit": "%"}, {"measurement": "Appearance", "setting": "[1]; [7]", "result": "White"}, {"measurement": "Purity (%)", "setting": "[1]; [7]", "result": 99.35, "unit": "%"}, {"measurement": "Appearance", "setting": "[1]; [8]", "result": "White"}, {"measurement": "Purity (%)", "setting": "[1]; [8]", "result": 99.45, "unit": "%"}, {"measurement": "changes of appearance, chemical purity and crystal form", "setting": "[1]; high-temperature, up to 30 days", "result": "no obvious changes"}, {"measurement": "Appearance", "setting": "[2]; 5 days", "result": "White"}, {"measurement": "Purity (%)", "setting": "[2]; 5 days", "result": 99.55, "unit": "%"}, {"measurement": "Appearance", "setting": "[2]; 10 days", "result": "White"}, {"measurement": "Purity (%)", "setting": "[2]; 10 days", "result": 99.39, "unit": "%"}, {"measurement": "Appearance", "setting": "[2]; 30 days", "result": "White"}, {"measurement": "Purity (%)", "setting": "[2]; 30 days", "result": 99.42, "unit": "%"}, {"measurement": "changes of appearance, chemical purity and crystal form", "setting": "[2]; high-humidity, up to 30 days", "result": "no obvious changes"}, {"measurement": "Appearance", "setting": "[3]; 5 days", "result": "White"}, {"measurement": "Purity (%)", "setting": "[3]; 5 days", "result": 99.53, "unit": "%"}, {"measurement": "Appearance", "setting": "[3]; 13 days", "result": "White"}, {"measurement": "Purity (%)", "setting": "[3]; 13 days", "result": 99.31, "unit": "%"}, {"measurement": "Appearance", "setting": "[3]; 30 days", "result": "White"}, {"measurement": "Purity (%)", "setting": "[3]; 30 days", "result": 99.43, "unit": "%"}, {"measurement": "changes of appearance, chemical purity and crystal form", "setting": "[3]; light, up to 30 days", "result": "no obvious changes"}, {"measurement": "hygroscopic feature according to the criterion for the hygroscopic weight gain", "setting": "[4]", "result": "no or almost none hygroscopicity"}, {"measurement": "weight gain after equilibrium", "setting": "[4]", "result": "less than 0.1%"}, {"measurement": "exposure in Beagle dogs", "setting": "[5]; conclusion in words", "result": "relatively large exposure"}, {"measurement": "AUC(0-t)", "setting": "[5]; [9]", "result": 237, "unit": "ng·h/mL"}, {"measurement": "Cmax", "setting": "[5]; [9]", "result": 86, "unit": "ng/mL"}, {"measurement": "Tmax", "setting": "[5]; male Beagle dogs, capsules", "result": 40, "unit": "min"}]}]}
